Laboratory results published in patent US20090305960A1, “Melanocortin Receptor-Specific Peptides for Treatment of Obesity / 669” (Palatin Technologies, Inc, priority 2008, published 2009).
Values joined by “and” are separate entries in the source; they are usually repeats but may differ in a detail not shown here. Identical values can stand only once. Like-named read-outs stand apart in the source and are kept apart here. Blank lines part the entries; values can stand above or below the molecule they belong to. *1 amine or outer side, *2 acyl side, *3 side chain or, on linkers, in order; H or OH if unused. Where a SMILES comes first, the peptide text is derived from it. Bridges are numbered along the chain shown (N, C = ends). [ ]: non-standard residue; d: D form. Ser(Bzl) = O-benzyl-L-serine, O=C([C@H](COCc1ccccc1)N[*:1])[*:2]; Orn = NCCC[C@H](N)C(=O)O

Experiments:
[1] = Induction of penile erection in male rats; assay type: in vivo, rat; settings: for increase in observed spontaneous erections: in words
Method: The ability of peptides of the present invention to induce penile erection (PE) in male rats were evaluated with selected peptides. Male Sprague-Dawley rats weighing 250-300 g were kept on a 12 hour on/off light cycle with food and water ad libitum. All behavioral studies were performed between 9 a.m. and 4 p.m. Groups of 6-8 rats were administered peptides at a variety of doses via an IV route. Immediately after treatment, rats were placed into individual polystyrene cages (27 cm long, 16 cm wide, and 25 cm high) for behavioral observation, typically by remote video monitoring. Rats are observed for one hour, and the number of yawns, grooming bouts and PEs are recorded in 10-minute bins.

hMC4-R [2] = target: T1, hMC4-R (Homo sapiens, UniProt P32245); assay: Competitive binding assay using Eu-NDP-α-MSH, MC4-R; settings: for selectivity for MC4-R (binding against MC1-R, MC3-R and MC4-R): in words
T1 construct: expressed in transfected cells; host or cells: HEK-293 (membrane homogenates)
Method: Competitive inhibition binding assays were performed using membrane homogenates prepared from HEK-293 cells that express recombinant hMC1-R, hMC3-R, hMC4-R, or hMC5-R. In the examples that follow, all MC1-R, MC3-R, MC4-R and MC5-R values are for human recombinant receptors. Assays were performed in 96 well GF/B Millipore multiscreen filtration plates (MAFB NOB10) pre-coated with 0.5% bovine serum albumin (Fraction V). Membrane homogenates were incubated with 0.1 nM [1^125]-NDP-α-MSH (Perkin Elmer) and increasing concentrations of test peptides of the present invention in buffer containing 25 mM HEPES buffer (pH 7.5) with 100 mM NaCl, 2 mM CaCl2, 2 mM MgCl2, 0.3 mM 1,10-phenanthroline, and 0.1% bovine serum albumin. After incubation for 90 minutes at 37° C., the assay mixture was filtered and the membranes washed with 1 mL of cold 1×PBS wash buffer per well. 35 μL of scintillation cocktail was added to each well and the plates counted on a Microbeta counter for 1 minute per well. Non-specific binding was measured by inhibition of binding of [I^125]-NDP-α-MSH in the presence of 1 μM NDP-α-MSH. Maximal specific binding (100%) was defined as the difference in radioactivity (cpm) bound to cell membranes in the absence and presence of 1 μM NDP-α-MSH. Radioactivity (cpm) obtained in the presence of test compounds was normalized with respect to 100% specific binding to determine the percent inhibition of [I^125]-NDP-α-MSH binding. Each assay was conducted in duplicate and actual mean values are described, with results less than 0% reported as 0%. Ki values for test peptides of the present invention were determined using Graph-Pad Prism® curve-fitting software.
(§1) Alternatively, a competitive inhibition binding assay was performed employing Eu-NDP-α-MSH (PerkinElmer Life Sciences catalog No. AD0225) with determination by time-resolved fluorometry (TRF) of the lanthanide chelate. In comparison studies with [I^125]-NDP-α-MSH, the same values, within experimental error ranges, were obtained for percent inhibition and Ki. Typically competition experiments to determine Ki values were conducted by incubating membrane homogenates prepared from HEK-293 cells that express recombinant hMC4-R with 9 different concentrations of test compounds of interest and 1 nM of Eu-NDP-α-MSH in a solution containing 25 mM HEPES buffer with 100 mM NaCl, 2 mM CaCl2, 2 mM MgCl2, 0.1% BSA, and 0.3 mM 1,10-phenanthroline. After incubation for 90 minutes at 37° C., the reaction was stopped by filtration over AcroWell 96-well filter plates (Pall Life Sciences). The filter plates were washed 4 times with 200 μL of ice-cold phosphate-buffered saline. DELFIA Enhancement solution (PerkinElmer Life Sciences) was added to each well. The plates were incubated on a shaker for 15 minutes and read at 340 nm excitation and 615 nm emission wavelengths. Each assay was conducted in duplicate and mean values were utilized. Ki values were determined by curve-fitting with Graph-Pad Prism® software using a one-site fixed-slope competition binding model.

[3] = Food intake and body weight change in rats; assay type: in vivo, rat; settings: for food intake / rate of change in body weight: rat feeding studies, overall finding in words; for decrease in food consumption compared to control: rats
Method: Change in food intake and body weight was evaluated for selected peptides administered by intravenous (IV) or subcutaneous injection routes. Male Sprague-Dawley rats were obtained from Hilltop Lab Animals, Inc. (Scottsdale, Pa.) or other vendors. Animals were individually housed in conventional polystyrene hanging cages and maintained on a controlled 12 hour on/off light cycle. Water and pelleted food was provided ad libitum. The rats were dosed IV with vehicle or selected peptides (0.3 to 1.0 mg/kg), or dosed subcutaneously with vehicle or selected peptides (doses up to 30 mg/kg). The changes in body weight and food intake for the 24 hour period after dosing was determined. The changes in body weight and food intake for the 48 hour and 72 hour periods after dosing can also be measured to determine reversal of changes in body weight and food intake effects back to baseline levels.

hMC4-R [4] = target: T1, hMC4-R; assay: Assay for agonist activity (cAMP accumulation in HEK-293 cells expressing hMC4-R); assay type: cell-based
Method: Accumulation of intracellular cAMP was examined as a measure of the ability of the peptides of the present invention to elicit a functional response in HEK-293 cells that express MC4-R. Confluent HEK-293 cells that express recombinant hMC4-R were detached from culture plates by incubation in enzyme-free cell dissociation buffer. Dispersed cells were suspended in Earle's Balanced Salt Solution containing 10 mM HEPES (pH 7.5), 1 mM MgCl2, 1 mM glutamine, 0.5% albumin and 0.3 mM 3-isobutyl-1-methyl-xanthine (IBMX), a phosphodiesterase inhibitor. The cells were plated in 96-well plates at a density of 0.5×10^5 cells per well and pre-incubated for 10 minutes. Cells were exposed for 15 minutes at 37° C. to peptides of the present invention dissolved in DMSO (final DMSO concentration of 1%) at a concentration range of 0.05-5000 nM in a total assay volume of 200 μL. NDP-α-MSH was used as the reference agonist. cAMP levels were determined by an HTRF® cAMP cell-based assay system from Cisbio Bioassays utilizing cryptate-labeled anti-cAMP and d2-labeled cAMP, with plates read on a Perkin-Elmer Victor plate reader at […]. Data analysis was performed by nonlinear regression analysis with Graph-Pad Prism® software. The maximum efficacies of the test peptides of the present invention were compared to that achieved by the reference melanocortin agonist NDP-α-MSH.

[5] = target: T2, human melanocortin-4 receptor (recombinant hMC4-R) (human, UniProt P32245 1-332); assay: competitive binding vs Eu-NDP-α-MSH, TRF, hMC4-R HEK-293 membranes
T2 construct: whole, on cells; the cAMP assay used whole cells; also called MC4 receptor
Method: as §1, with “[I¹²⁵]-NDP-α-MSH,” for “[I^125]-NDP-α-MSH,”, “Typically competition experiments to determine Ki values were conducted by incubating membrane homogenates prepared from HEK-293 cells that express recombinant hMC4-R with 9 different concentrations of test compounds of interest and 1 nM of Eu-NDP-α-MSH in a solution containing 25 mM HEPES buffer with 100 mM NaCl, 2 mM CaCl2, 2 mM MgCl2, 0.1% BSA, and 0.3 mM 1,10-phenanthroline.” left out
Peptides of the following structures were synthesized by the general methods described above, and except where indicated MC4-R Ki values for each peptide were determined in competitive binding assays using Eu-NDP-α-MSH as described in 7.2 above.

[6] = target: T2, human melanocortin-4 receptor …; assay: cell-based or functional assay
[7] = target: T3, human melanocortin-3 receptor (recombinant hMC3-R) (human, UniProt P41968 1-323); assay: competitive binding vs labelled NDP-α-MSH, hMC3-R membranes
T3 construct: whole, on cells; Membrane homogenates of HEK-293 cells expressing the recombinant receptor

[8] = target: human melanocortin-4 receptor (recombinant hMC4-R) (human) (UniProt P32245); assay: cell-based or functional assay
[9] = competitive binding using Eu-NDP-α-MSH, human recombinant receptor, read-out: MC4-R Ki
[10] = competitive studies using Eu-NDP-α-MSH / NDP-α-MSH, average of several studies, read-out: Ki value at MC4-R

T1 sequence (P32245 whole entry): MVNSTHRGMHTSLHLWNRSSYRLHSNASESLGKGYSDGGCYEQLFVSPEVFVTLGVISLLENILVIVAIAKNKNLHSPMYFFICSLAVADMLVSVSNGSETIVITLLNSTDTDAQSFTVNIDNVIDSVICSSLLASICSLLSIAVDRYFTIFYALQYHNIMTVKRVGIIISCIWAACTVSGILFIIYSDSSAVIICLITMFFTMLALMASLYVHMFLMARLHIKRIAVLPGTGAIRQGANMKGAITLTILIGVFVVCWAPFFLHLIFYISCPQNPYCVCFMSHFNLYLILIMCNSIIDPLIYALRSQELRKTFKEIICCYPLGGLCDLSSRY
Sequence of human melanocortin-4 receptor (recombinant hMC4-R) (human) (P32245 whole entry): as above
T2 sequence (P32245 whole entry): as above
T3 sequence (P41968 whole entry): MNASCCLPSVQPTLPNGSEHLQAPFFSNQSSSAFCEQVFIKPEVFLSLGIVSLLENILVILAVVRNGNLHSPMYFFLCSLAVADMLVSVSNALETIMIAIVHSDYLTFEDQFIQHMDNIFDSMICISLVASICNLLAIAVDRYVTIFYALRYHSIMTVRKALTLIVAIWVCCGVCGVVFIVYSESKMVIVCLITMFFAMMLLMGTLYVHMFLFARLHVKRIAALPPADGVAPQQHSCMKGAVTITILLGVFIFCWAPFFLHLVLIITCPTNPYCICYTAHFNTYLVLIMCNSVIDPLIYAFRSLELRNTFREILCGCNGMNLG

Molecule: CCCC[C@H](NC(C)=O)C(=O)N[C@H]1CC(=O)NCCCC[C@@H](C(=O)O)NC(=O)[C@H](Cc2c[nH]c3ccccc23)NC(=O)[C@H](CCCN=C(N)N)NC(=O)[C@@H](Cc2ccccc2)NC(=O)[C@H](Cc2cnc[nH]2)NC1=O [bremelanotide, Ac-Nle-cyclo(Asp-His-D-Phe-Arg-Trp-Lys)-OH, reference compound]
- average spontaneous erections per rat in one hour ([1]; IV, 1 mg/kg): 4.875±0.990 spontaneous erections per rat in one hour and 3.167±0.79 spontaneous erections per rat in one hour
- average spontaneous erections per rat in one hour ([1]; positive control, dose not stated in this study): 3.714±0.680 spontaneous erections per rat in one hour

- Ki (hMC4-R [2]; [9]): 0.013 µM
Molecule: CC(=O)N[C@@H](CCCNC(=N)N)C(=O)N[C@H]1CCC(=O)NCCC[C@@H](C(=O)O)NC(=O)[C@H](Cc2c[nH]c3ccccc23)NC(=O)[C@H](CCCNC(=N)N)NC(=O)[C@@H](Cc2ccccc2)NC(=O)[C@H](COCc2ccccc2)NC1=O [Compound 6, Ac-Arg-cyclo(Glu-Ser(Bzl)-D-Phe-Arg-Trp-Orn)-OH]

- Ki (hMC4-R [2]; [10]): 0.011 µM
- selectivity for MC4-R (binding against MC1-R, MC3-R and MC4-R) (hMC4-R [2]): highly selective for MC4-R
Molecule: CC(=O)N[C@@H](CCCNC(=N)N)C(=O)N[C@H]1CC(=O)NCCCC[C@@H](C(N)=O)NC(=O)[C@H](Cc2c[nH]c3ccccc23)NC(=O)[C@H](CCCNC(=N)N)NC(=O)[C@@H](Cc2ccccc2)NC(=O)[C@@H]2CCCN2C1=O [Compound 3, Ac-Arg-cyclo(Asp-Pro-D-Phe-Arg-Trp-Lys)-NH2]
- food intake [3]: reduce food intake
- rate of change in body weight [3]: decrease the rate of change in body weight
- decrease in food consumption compared to control ([3]; 0.3 mg/kg, 0-2 hour period): statistically significant
- decrease in food consumption compared to control ([3]; 0.3 mg/kg, 0-4 hour period): statistically significant
- decrease in food consumption compared to control ([3]; 0.3 mg/kg, 0-20 hour period): statistically significant
- decrease in food consumption compared to control ([3]; 1 mg/kg, 0-2 hour period): statistically significant
- decrease in food consumption compared to control ([3]; 1 mg/kg, 0-4 hour period): statistically significant
- decrease in food consumption compared to control ([3]; 1 mg/kg, 0-20 hour period): statistically significant
- average spontaneous erections per rat in one hour ([1]; IV, 0.3 mg/kg): 1.143±0.553 spontaneous erections per rat in one hour
- average spontaneous erections per rat in one hour ([1]; IV, 1 mg/kg): 1.286±0.421 spontaneous erections per rat in one hour
- increase in observed spontaneous erections ([1]; IV): not found to result in a statistically significant increase

- Ki (hMC4-R [2]; [9]): 0.013 µM
Molecule: CC(=O)N[C@@H](CCCNC(=N)N)C(=O)N[C@H]1CCCNC(=O)CC[C@@H](C(N)=O)NC(=O)[C@H](Cc2c[nH]c3ccccc23)NC(=O)[C@H](CCCNC(=N)N)NC(=O)[C@@H](Cc2ccccc2)NC(=O)[C@@H]2CCCN2C1=O [Compound 5, Ac-Arg-cyclo(Orn-Pro-D-Phe-Arg-Trp-Glu)-NH2] (Ac-R[Orn]P[dF]RWE-NH2; lactam 2-7)

- Ki (hMC4-R [2]; [10]): 0.012 µM
- selectivity for MC4-R (binding against MC1-R, MC3-R and MC4-R) (hMC4-R [2]): highly selective for MC4-R
- Emax (hMC4-R [4]; HEK293, NDP-α-MSH is 100%, read-out: intrinsic activity at MC4-R): 38%
- intrinsic activity at MC4-R (hMC4-R [4]; NDP-α-MSH is 100%): 47%
- EC50 (hMC4-R [4]; functional studies at MC4-R, average of several studies): 0.002 µM
- functional classification at MC4-R (hMC4-R [4]; in words): partial agonist
Molecule: CC(=O)N[C@@H](CCCNC(=N)N)C(=O)N[C@H]1CC(=O)NCCCC[C@@H](C(=O)O)NC(=O)[C@H](Cc2c[nH]c3ccccc23)NC(=O)[C@H](CCCNC(=N)N)NC(=O)[C@@H](Cc2ccccc2)NC(=O)[C@H](COCc2ccccc2)NC1=O [Compound 1, Ac-Arg-cyclo(Asp-Ser(Bzl)-D-Phe-Arg-Trp-Lys)-OH]
- food intake [3]: reduce food intake
- rate of change in body weight [3]: decrease the rate of change in body weight
- decrease in food consumption compared to control ([3]; 0.3 mg/kg, 0-4 hour period): statistically significant
- decrease in food consumption compared to control ([3]; 1 mg/kg, 0-2 hour period): statistically significant
- decrease in food consumption compared to control ([3]; 1 mg/kg, 0-4 hour period): statistically significant
- decrease in food consumption compared to control ([3]; 1 mg/kg, 0-20 hour period): statistically significant
- average spontaneous erections per rat in one hour ([1]; IV, 1 mg/kg): 1.5±0.378 spontaneous erections per rat in one hour
- increase in observed spontaneous erections ([1]; IV): not found to result in a statistically significant increase

- Ki [5]: 0.116 µM
B1: Ac-Arg-cyclo(Asp-Pro-D-Phe-Arg-trp-Lys)-OH (peptide)
peptide: RDPXRWK
modifications: not fully specified; N-terminal acetyl (Ac); D-Phe at position 4; side-chain lactam cyclo(Asp2-Lys7); C-terminal -OH; position 6 printed 'trp' in the table and in claim 5 but 'Trp' in the 2nd table
notes: Synthetic cyclic heptapeptide; also called Compound 8; No. 8

- EC50 (cAMP accumulation, HEK-293 cells expressing hMC4-R) [6]: 0.01 µM
- Ki [7]: 0.125 µM
B2: cyclic peptide of Compound 3, Ac-Arg-cyclo(Asp-Pro-D-Phe-Arg-Trp-Lys)-NH2 (peptide)
peptide: RDPXRWK
modifications: N-terminal acetyl (Ac); D-Phe at position 4; side-chain lactam cyclo(Asp2-Lys7); C-terminal amide (-NH2)
notes: Synthetic cyclic heptapeptide; prepared as TFA salt; also called No. 3

- EC50 (cAMP accumulation, HEK-293 cells expressing hMC4-R) [8]: 0.002 µM
- intrinsic activity (cAMP accumulation, HEK-293 cells expressing hMC4-R) [8]: 47%
Molecule: Ac-R[Orn][Ser(Bzl)][dF]RWE-OH (lactam 2-7; also: TFA salt) [cyclic peptide of Compound 7, Ac-Arg-cyclo(Orn-Ser(Bzl)-D-Phe-Arg-Trp-Glu)-OH]
